US12629355B2, “Drug inhibitor against migration and invasion of cancer cells and methods of treating against metastasis of cancer cells” (HOWARD UNIVERSITY, priority 2019, dated 2026)

Tested on: U251 cells
Assay: Transwell invasion assay (FIG. 10)
Type: cell-based
Settings: serum free media with TGF in upper chamber, about 14 hours
Description: A transwell assay is conducted as a means for testing for invasion. A transwell invasion assay can be used to test the invasive potential of cells in response migration inducers or inhibitors. This assay is also known as modified Boyden chamber assay. During this assay, cells are placed on the upper layer of a cell culture insert with permeable membrane and a solution containing the test agent is placed below the cell permeable membrane. Following an incubation period (3-18 hours) at 37° C. in a humidified chamber, the cells that have stuck during the migration towards the lower chamber through the membrane are stained and counted. […] Collectively, these findings (as shown in FIG. 9 and FIG. 10) indicate that administering a representative compound (SD 29-14) played a significant functional role in the regulation of U251 glioma cell migration and invasion.
In measuring cell invasion, 12-well transwell chambers (Corning Inc., Kennebunk, ME) were used with 6.5 mm inserts and 8.0 μm membrane pore size. […] Invasive cells on the bottom surface were fixed with 4% paraformaldehyde for 15 min and stained with 0.2% crystal violet for 15 minutes and the cells were counted and photographed under a light microscope.

`Nn1c(S)nnc1-c1cc(Cl)cc(Cl)c1` [SD 29-14] was tested, and the “cells on the membrane (invasion)” value was “hardly any cells were observed on the membrane”.
